Assay results: US20250163104A1, “MACROCYCLIC IMMUNOMODULATORS” (priority 2021, published 2025)
*1 amine or outer side, *2 acyl side, *3 side chain or, on linkers, in order; H or OH if unused. Where a SMILES comes first, the peptide text is derived from it. Bridges are numbered along the chain shown (N, C = ends). [ ]: non-standard residue; d: D form. The star is where a group is joined. Bip = N[C@@H](Cc1ccc(-c2ccccc2)cc1)C(=O)O; Phe(3-Me) = Cc1cccc(C[C@H](N)C(=O)O)c1; γGlu = O=C(O)[C@H](CCC(=O)[*:2])N[*:1]; Cha = N[C@@H](CC1CCCCC1)C(=O)O; Carboxymethyl = O=C(O)C*; Orn = NCCC[C@H](N)C(=O)O; Pra = C#CC[C@H](N)C(=O)O; Dab = NCC[C@H](N)C(=O)O; Dap = NC[C@H](N)C(=O)O; Propargyl = C#CC*

target: T1, human PD-1 / PD-L1-Ig binding on Jurkat cell line over-expressing human PD-1 (Jurkat-PD-1) (Homo sapiens, UniProt Q15116); experiment: Jurkat-PD-1 Cell Binding High-Content Screening Assay (CBA); assay type: cell-based; conditions: Jurkat-PD-1 cells, PE-labeled PD-L1-Ig 20 nM final; read-out: Jurkat HPD1_PDL1 IC50
T1 construct: expressed in transfected cells; host or cells: Jurkat
T1 sequence (Q15116 25-288): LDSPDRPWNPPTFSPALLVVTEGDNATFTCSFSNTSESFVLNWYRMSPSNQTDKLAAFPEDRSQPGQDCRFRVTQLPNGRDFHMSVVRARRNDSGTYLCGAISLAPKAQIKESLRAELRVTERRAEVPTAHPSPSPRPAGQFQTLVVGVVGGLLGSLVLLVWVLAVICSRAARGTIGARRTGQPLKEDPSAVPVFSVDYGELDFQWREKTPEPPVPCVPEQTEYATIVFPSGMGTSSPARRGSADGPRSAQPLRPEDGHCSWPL
In short: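 Read-out: high-content imaging of PE-tagged PD-L1-Ig bound to Jurkat cells overexpressing human PD-1, after fixation with 4% paraformaldehyde and Hoechst 33342 nuclear staining. Ligand was used at 20 nM final for 1 hour, after a 2 h compound exposure at 37° C in serum-containing DMEM.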

Structure (SMILES) | IC50 [nM]
Cc1cccc(C[C@@H]2NC(=O)[C@H](CC(=O)O)NC(=O)[C@H](Cc3ccc(OCC(=O)O)cc3)NC(=O)[C@H]([C@@H](C)O)NC(=O)CSC[C@@H](C(N)=O)NC(=O)[C@H](CC(=O)O)NC(=O)[C@H](C(C)C)NC(=O)[C@H](CC3CCCCC3)NC(=O)[C@H](CCN)NC(=O)[C@@H](CC(C)C)NC(=O)[C@H](CCCN)NC(=O)[C@H](Cc3ccc(OCC(=O)O)cc3)NC(=O)[C@H](Cc3ccc(-c4ccccc4)cc3)NC(=O)[C@H](Cc3ccc(OCC(=O)O)cc3)NC2=O)c1 [Compound 1798] ({CH2CO}-TY(Carboxymethyl)D[Phe(3-Me)]Y(Carboxymethyl)[Bip]Y(Carboxymethyl)[Orn][dL][Dab][Cha]VDC-NH2; thioether N-14) | 26.7
Cc1cccc(C[C@@H]2NC(=O)[C@H](CC(=O)O)NC(=O)[C@H](Cc3ccc(OCC(=O)O)cc3)NC(=O)[C@H]([C@@H](C)O)NC(=O)CSC[C@@H](C(N)=O)NC(=O)[C@H](CCC(N)=O)NC(=O)[C@H](C(C)C)NC(=O)[C@H](CC3CCCCC3)NC(=O)[C@H](CCN)NC(=O)[C@@H](CC(C)C)NC(=O)[C@H](CCCN)NC(=O)[C@H](Cc3ccc(OCC(=O)O)cc3)NC(=O)[C@H](Cc3ccc(-c4ccccc4)cc3)NC(=O)[C@H](Cc3ccc(OCC(=O)O)cc3)NC2=O)c1 [Compound 1799] ({CH2CO}-TY(Carboxymethyl)D[Phe(3-Me)]Y(Carboxymethyl)[Bip]Y(Carboxymethyl)[Orn][dL][Dab][Cha]VQC-NH2; thioether N-14) | 33.5
Cc1cccc(C[C@@H]2NC(=O)[C@H](CC(=O)O)NC(=O)[C@H](Cc3ccc(OCC(=O)O)cc3)NC(=O)[C@H]([C@@H](C)O)NC(=O)CSC[C@@H](C(N)=O)NC(=O)[C@H]([C@@H](C)O)NC(=O)[C@H](C(C)C)NC(=O)[C@H](CC3CCCCC3)NC(=O)[C@H](CCN)NC(=O)[C@@H](CC(C)C)NC(=O)[C@H](CCCN)NC(=O)[C@H](Cc3ccc(OCC(=O)O)cc3)NC(=O)[C@H](Cc3ccc(-c4ccccc4)cc3)NC(=O)[C@H](Cc3ccc(OCC(=O)O)cc3)NC2=O)c1 [Compound 1800] ({CH2CO}-TY(Carboxymethyl)D[Phe(3-Me)]Y(Carboxymethyl)[Bip]Y(Carboxymethyl)[Orn][dL][Dab][Cha]VTC-NH2; thioether N-14) | 17.3
Cc1cccc(C[C@@H]2NC(=O)[C@H](CC(=O)O)NC(=O)[C@H](Cc3ccc(OCC(=O)O)cc3)NC(=O)[C@H]([C@@H](C)O)NC(=O)CSC[C@@H](C(N)=O)NC(=O)[C@H](CCC(=O)O)NC(=O)[C@H](C(C)C)NC(=O)[C@H](CC3CCCCC3)NC(=O)[C@H](CCN)NC(=O)[C@@H](CC(C)C)NC(=O)[C@H](CCCN)NC(=O)[C@H](Cc3ccc(OCC(=O)O)cc3)NC(=O)[C@H](Cc3ccc(-c4ccccc4)cc3)NC(=O)[C@H](Cc3ccc(OCC(=O)O)cc3)NC2=O)c1 [Compound 1801] ({CH2CO}-TY(Carboxymethyl)D[Phe(3-Me)]Y(Carboxymethyl)[Bip]Y(Carboxymethyl)[Orn][dL][Dab][Cha]VEC-NH2; thioether N-14) | 84.4
Cc1cccc(C[C@@H]2NC(=O)[C@H](CC(=O)O)NC(=O)[C@H](Cc3ccc(OCC(=O)O)cc3)NC(=O)[C@H]([C@@H](C)O)NC(=O)CSC[C@@H](C(N)=O)NC(=O)[C@H](CCCN)NC(=O)[C@H](C(C)C)NC(=O)[C@H](CC3CCCCC3)NC(=O)[C@H](CCN)NC(=O)[C@@H](CC(C)C)NC(=O)[C@H](CCCN)NC(=O)[C@H](Cc3ccc(OCC(=O)O)cc3)NC(=O)[C@H](Cc3ccc(-c4ccccc4)cc3)NC(=O)[C@H](Cc3ccc(OCC(=O)O)cc3)NC2=O)c1 [Compound 1802] ({CH2CO}-TY(Carboxymethyl)D[Phe(3-Me)]Y(Carboxymethyl)[Bip]Y(Carboxymethyl)[Orn][dL][Dab][Cha]V[Orn]C-NH2; thioether N-14) | 9.5
C#CC[C@H](NC(=O)[C@H](CCC(=O)O)NC(=O)[C@@H]1CSCC(=O)N[C@@H](CN)C(=O)N[C@@H](Cc2ccc(OCC(=O)O)cc2)C(=O)N[C@@H](CC(=O)O)C(=O)N[C@@H](Cc2cccc(C)c2)C(=O)N[C@@H](Cc2ccc(OCC(=O)O)cc2)C(=O)N[C@@H](Cc2ccc(-c3ccccc3)cc2)C(=O)N[C@@H](Cc2ccc(OCC(=O)O)cc2)C(=O)N[C@@H](CCCN)C(=O)N[C@H](CC(C)C)C(=O)N[C@@H](CCN)C(=O)N[C@@H](CC2CCCCC2)C(=O)N[C@@H](C(C)C)C(=O)N[C@@H]([C@@H](C)O)C(=O)N1)C(N)=O [Compound 1803] ({CH2CO}-[Dap]Y(Carboxymethyl)D[Phe(3-Me)]Y(Carboxymethyl)[Bip]Y(Carboxymethyl)[Orn][dL][Dab][Cha]VTCE[Pra]-NH2; thioether N-14) | 24.7
C#CC[C@H](NC(=O)CC[C@H](NC(=O)[C@@H]1CSCC(=O)N[C@@H](CN)C(=O)N[C@@H](Cc2ccc(OCC(=O)O)cc2)C(=O)N[C@@H](CC(=O)O)C(=O)N[C@@H](Cc2cccc(C)c2)C(=O)N[C@@H](Cc2ccc(OCC(=O)O)cc2)C(=O)N[C@@H](Cc2ccc(-c3ccccc3)cc2)C(=O)N[C@@H](Cc2ccc(OCC(=O)O)cc2)C(=O)N[C@@H](CCCN)C(=O)N[C@H](CC(C)C)C(=O)N[C@@H](CCN)C(=O)N[C@@H](CC2CCCCC2)C(=O)N[C@@H](C(C)C)C(=O)N[C@@H]([C@@H](C)O)C(=O)N1)C(=O)O)C(N)=O [Compound 1804] ({CH2CO}-[Dap]Y(Carboxymethyl)D[Phe(3-Me)]Y(Carboxymethyl)[Bip]Y(Carboxymethyl)[Orn][dL][Dab][Cha]VTC[γGlu][Pra]-NH2; thioether N-14) | 6.6
C#CC[C@H](NC(=O)CC[C@H](NC(=O)[C@H](C)NC(=O)[C@@H]1CSCC(=O)N[C@@H](CN)C(=O)N[C@@H](Cc2ccc(OCC(=O)O)cc2)C(=O)N[C@@H](CC(=O)O)C(=O)N[C@@H](Cc2cccc(C)c2)C(=O)N[C@@H](Cc2ccc(OCC(=O)O)cc2)C(=O)N[C@@H](Cc2ccc(-c3ccccc3)cc2)C(=O)N[C@@H](Cc2ccc(OCC(=O)O)cc2)C(=O)N[C@@H](CCCN)C(=O)N[C@H](CC(C)C)C(=O)N[C@@H](CCN)C(=O)N[C@@H](CC2CCCCC2)C(=O)N[C@@H](C(C)C)C(=O)N[C@@H]([C@@H](C)O)C(=O)N1)C(=O)O)C(N)=O [Compound 1807] ({CH2CO}-[Dap]Y(Carboxymethyl)D[Phe(3-Me)]Y(Carboxymethyl)[Bip]Y(Carboxymethyl)[Orn][dL][Dab][Cha]VTCA[γGlu][Pra]-NH2; thioether N-14) | 4.6
C#CCOc1ccc(C[C@@H]2NC(=O)[C@H](Cc3cccc(C)c3)NC(=O)[C@H](CC(=O)O)NC(=O)[C@H](Cc3ccc(OCC(=O)O)cc3)NC(=O)[C@H](CN)NC(=O)CSC[C@@H](C(=O)N[C@@H](CCN)C(N)=O)NC(=O)[C@H](CCC(=O)O)NC(=O)[C@H](C(C)C)NC(=O)[C@H](CC3CCCCC3)NC(=O)[C@H](CCN)NC(=O)[C@@H](CC(C)C)NC(=O)[C@H](CCCN)NC(=O)[C@H](Cc3ccc(OCC(=O)O)cc3)NC(=O)[C@H](Cc3ccc(-c4ccccc4)cc3)NC2=O)cc1 [Compound 1812] ({CH2CO}-[Dap]Y(Carboxymethyl)D[Phe(3-Me)]Y(Propargyl)[Bip]Y(Carboxymethyl)[Orn][dL][Dab][Cha]VEC[Dab]-NH2; thioether N-14) | 3.2
C#CCOc1ccc(C[C@@H]2NC(=O)[C@H](C(C)C)NC(=O)[C@H](CC3CCCCC3)NC(=O)[C@H](CCN)NC(=O)[C@@H](CC(C)C)NC(=O)[C@H](CCCN)NC(=O)[C@H](Cc3ccc(OCC(=O)O)cc3)NC(=O)[C@H](Cc3ccc(-c4ccccc4)cc3)NC(=O)[C@H](Cc3ccc(OCC(=O)O)cc3)NC(=O)[C@H](Cc3cccc(C)c3)NC(=O)[C@H](CC(=O)O)NC(=O)[C@H](Cc3ccc(OCC(=O)O)cc3)NC(=O)[C@H](Cc3cnc[nH]3)NC(=O)CSC[C@@H](C(=O)N[C@@H](CCN)C(N)=O)NC2=O)cc1 [Compound 1813] ({CH2CO}-HY(Carboxymethyl)D[Phe(3-Me)]Y(Carboxymethyl)[Bip]Y(Carboxymethyl)[Orn][dL][Dab][Cha]VY(Propargyl)C[Dab]-NH2; thioether N-14) | 0.7
C#CCOc1ccc(C[C@@H]2NC(=O)[C@H](C(C)C)NC(=O)[C@H](CC3CCCCC3)NC(=O)[C@H](CCN)NC(=O)[C@@H](CC(C)C)NC(=O)[C@H](CCCN)NC(=O)[C@H](Cc3ccc(OCC(=O)O)cc3)NC(=O)[C@H](Cc3ccc(-c4ccccc4)cc3)NC(=O)[C@H](Cc3ccc(OCC(=O)O)cc3)NC(=O)[C@H](Cc3cccc(C)c3)NC(=O)[C@H](CC(=O)O)NC(=O)[C@H](Cc3ccc(OCC(=O)O)cc3)NC(=O)[C@H](CCN)NC(=O)CSC[C@@H](C(=O)N[C@@H](CCN)C(N)=O)NC2=O)cc1 [Compound 1814] ({CH2CO}-[Dab]Y(Carboxymethyl)D[Phe(3-Me)]Y(Carboxymethyl)[Bip]Y(Carboxymethyl)[Orn][dL][Dab][Cha]VY(Propargyl)C[Dab]-NH2; thioether N-14) | 23
C#CCOc1ccc(C[C@@H]2NC(=O)[C@H](CCCNC(=N)N)NC(=O)CSC[C@@H](C(=O)N[C@@H](CCN)C(N)=O)NC(=O)[C@H](CCC(=O)O)NC(=O)[C@H](C(C)C)NC(=O)[C@H](CC3CCCCC3)NC(=O)[C@H](CCN)NC(=O)[C@@H](CC(C)C)NC(=O)[C@H](CCCN)NC(=O)[C@H](Cc3ccc(OCC(=O)O)cc3)NC(=O)[C@H](Cc3ccc(-c4ccccc4)cc3)NC(=O)[C@H](Cc3ccc(OCC(=O)O)cc3)NC(=O)[C@H](Cc3cccc(C)c3)NC(=O)[C@H](CC(=O)O)NC2=O)cc1 [Compound 1815] ({CH2CO}-RY(Propargyl)D[Phe(3-Me)]Y(Carboxymethyl)[Bip]Y(Carboxymethyl)[Orn][dL][Dab][Cha]VEC[Dab]-NH2; thioether N-14) | 22.2
